Reference: ChEMBL document CHEMBL1125860 (J Med Chem, 1991)
Calls of active or inactive are those of the source. No cut-off for these calls is given here.

Tests used:
Rattus norvegicus [1] = organism: Rattus norvegicus; test: In vitro inhibition of sorbitol accumulation was measured in rat sciatic nerves incubated in the presence of 50 mM glucose at 10e-5 M concentration; assay type: functional, Sciatic nerve
Rattus norvegicus [2] = organism: Rattus norvegicus; test: In vitro inhibition of sorbitol accumulation was measured in rat sciatic nerves incubated in the presence of 50 mM glucose at 10e-6 M concentration; assay type: functional, Sciatic nerve
Rattus norvegicus [3] = test: In vivo inhibition of galactitol accumulation in diaphragm of rat at 144 mg/kg; assay type: functional
Rattus norvegicus [4] = test: In vivo inhibition of galactitol accumulation in sciatic nerves of rat at 44 mg/kg/day; Not significant; assay type: functional, organism-based; conditions: Sciatic nerve
[5] = biological target: Aldo-keto reductase family 1 member B1 (Bos taurus) (UniProt P16116); test: In vitro % decrease of aldose reductase measured in isolated partially purified bovine lens preparations at 10e-7 M concentration
Rattus norvegicus [6] = test: In vivo inhibition of galactitol accumulation in diaphragm of rat at 97 mg/kg/day; assay type: functional
Rattus norvegicus [7] = test: In vivo inhibition of galactitol accumulation in sciatic nerves of rat at 97 mg/kg/day; assay type: functional; conditions: Sciatic nerve
Rattus norvegicus [8] = test: In vivo inhibition of galactitol accumulation in diaphragm of rat at 16 mg/kg/day; assay type: functional
[9] = biological target: Aldo-keto reductase family 1 member B1 (Bos taurus) (UniProt P16116); test: In vitro % decrease of aldose reductase was measured in isolated partially purified bovine lens preparations at 10e-7 M concentration; Not active
Rattus norvegicus [10] = test: In vivo inhibition of galactitol accumulation in sciatic nerves of rat at 16 mg/kg/day; Not significant; assay type: functional, organism-based; conditions: Sciatic nerve
Rattus norvegicus [11] = test: In vivo inhibition of galactitol accumulation in diaphragm of rat at 11 mg/kg/day; assay type: functional
Rattus norvegicus [12] = test: In vivo inhibition of galactitol accumulation in sciatic nerves of rat at 11 mg/kg/day; Not significant; assay type: functional, organism-based; conditions: Sciatic nerve
Rattus norvegicus [13] = organism: Rattus norvegicus; test: Inhibition of galactitol accumulation in rat RBC incubated in presence of 50 mM glucose; assay type: functional, organism-based
Rattus norvegicus [14] = organism: Rattus norvegicus; test: Inhibition of galactitol accumulation in rat lens incubated in presence of 50 mM glucose; assay type: functional, organism-based; conditions: Lens of camera-type eye
Rattus norvegicus [15] = test: In vivo inhibition of galactitol accumulation in diaphragm of rat at 5 mg/kg/day; assay type: functional
Rattus norvegicus [16] = organism: Rattus norvegicus; test: Inhibition of galactitol accumulation in sciatic nerves of rat incubated in presence of 50 mM glucose.; assay type: functional, organism-based; conditions: Sciatic nerve
Rattus norvegicus [17] = test: In vivo inhibition of galactitol accumulation in sciatic nerves of rat at 5 mg/kg/day; assay type: functional; conditions: Sciatic nerve
Rattus norvegicus [18] = test: In vivo inhibition of galactitol accumulation in the RBC of galactose fed rat.; assay type: functional
Rattus norvegicus [19] = organism: Rattus norvegicus; test: Inhibition of aldose reductase activity was measured by measuring sorbitor accumulation in the sciatic nerves of STZ diabetic rat.; assay type: functional; conditions: Sciatic nerve
Rattus norvegicus [20] = test: In vivo inhibition of galactitol accumulation in sciatic nerves of rat at 10 mg/kg/day; assay type: functional; conditions: Sciatic nerve
Rattus norvegicus [21] = test: In vivo inhibition of galactitol accumulation in diaphragm of rat at 10 mg/kg/day; assay type: functional
[22] = biological target: Aldo-keto reductase family 1 member B1 (Bos taurus) (UniProt P16116); test: Inhibition of aldose reductase activity was measured on partially purified bovine lens preparations incubated in presence of 50 mM glucose; Not active
Rattus norvegicus [23] = test: In vivo inhibition of galactitol accumulation in sciatic nerves of galactose fed rat.; assay type: functional; conditions: Sciatic nerve
Rattus norvegicus [24] = test: In vivo inhibition of galactitol accumulation in diaphragm of rat at 25 mg/kg/day; […]; assay type: functional, organism-based
Rattus norvegicus [25] = test: In vivo inhibition of galactitol accumulation in sciatic nerves of rat at 75 mg/kg/day; assay type: functional; conditions: Sciatic nerve
Rattus norvegicus [26] = test: In vivo inhibition of galactitol accumulation in sciatic nerves of rat at 25 mg/kg/day; assay type: functional; conditions: Sciatic nerve
Rattus norvegicus [27] = test: In vivo inhibition of galactitol accumulation in diaphragm of rat at 75 mg/kg/day; assay type: functional
Rattus norvegicus [28] = test: In vivo inhibition of galactitol accumulation in sciatic nerves of rat at 53 mg/kg/day; assay type: functional; conditions: Sciatic nerve
Rattus norvegicus [29] = test: In vivo inhibition of galactitol accumulation in diaphragm of rat at 53 mg/kg/day; assay type: functional
Rattus norvegicus [30] = test: In vivo inhibition of galactitol accumulation in diaphragm of rat at 132 mg/kg/day; assay type: functional
Rattus norvegicus [31] = test: In vivo inhibition of galactitol accumulation in sciatic nerves of rat at 132 mg/kg/day; assay type: functional; conditions: Sciatic nerve
Rattus norvegicus [32] = test: In vivo inhibition of galactitol accumulation in diaphragm of rat at 49 mg/kg; assay type: functional
Rattus norvegicus [33] = test: In vivo inhibition of galactitol accumulation in sciatic nerves of rat at 26 mg/kg/day; assay type: functional; conditions: Sciatic nerve
Rattus norvegicus [34] = test: In vivo inhibition of galactitol accumulation in sciatic nerves of rat at 49 mg/kg/day; assay type: functional; conditions: Sciatic nerve
Rattus norvegicus [35] = test: In vivo inhibition of galactitol accumulation in sciatic nerves of rat at 32 mg/kg/day; assay type: functional; conditions: Sciatic nerve
Rattus norvegicus [36] = test: % reduction of aldose reductase inhibition was evaluated by measuring galactitol accumulation in sciatic nerves of rat at 32 mg/kg/day; assay type: functional; conditions: Sciatic nerve
Rattus norvegicus [37] = test: In vivo inhibition of galactitol accumulation in sciatic nerves of rat at 11 mg/kg/day; assay type: functional; conditions: Sciatic nerve
Rattus norvegicus [38] = test: In vivo inhibition of galactitol accumulation in sciatic nerves of rat at 51 mg/kg/day; assay type: functional; conditions: Sciatic nerve
Rattus norvegicus [39] = test: In vivo inhibition of galactitol accumulation in diaphragm of rat at 51 mg/kg/day; assay type: functional
Rattus norvegicus [40] = test: In vivo inhibition of galactitol accumulation in diaphragm of rat at 123 mg/kg/day; assay type: functional
Rattus norvegicus [41] = test: In vivo inhibition of galactitol accumulation in sciatic nerves of rat at 123 mg/kg/day; assay type: functional; conditions: Sciatic nerve
Rattus norvegicus [42] = test: In vivo inhibition of galactitol accumulation in diaphragm of rat at 52 mg/kg/day; assay type: functional
Rattus norvegicus [43] = test: In vivo inhibition of galactitol accumulation in sciatic nerves of rat at 52 mg/kg/dayC; assay type: functional, organism-based; conditions: Sciatic nerve

## COc1ccc2c(C(=O)N(C)CC(=O)O)cc(Cc3ccccc3)cc2c1Br
Rattus norvegicus [1]
  Inhibition: 72%
Rattus norvegicus [2]
  Inhibition: 44%
Rattus norvegicus [3]
  inhibition in vivo at 144 mg/kg: 24%
Rattus norvegicus [4]
  inhibition: inactive
[5]
  inhibition: 74%

## COc1ccc2c(C(=O)N(C)CC(=O)O)c(Br)ccc2c1C(F)(F)F
Rattus norvegicus [1]
  Inhibition: 67%
Rattus norvegicus [2]
  Inhibition: 37%
Rattus norvegicus [6]
  inhibition in vivo at 97 mg/kg/day: 84%
Rattus norvegicus [7]
  inhibition in vivo at 97 mg/kg/day: 44%
[5]
  inhibition: 63%

## COC(=O)N(CC(N)=O)C(=O)c1c(F)ccc2c(C(F)(F)F)c(OC)ccc12
Rattus norvegicus [8]
  inhibition in vivo at 16 mg/kg/day: 33%
[9]
  inhibition: inactive
Rattus norvegicus [1]
  Inhibition: 34%
Rattus norvegicus [10]
  inhibition: inactive
Rattus norvegicus [2]
  Inhibition: 4%
Rattus norvegicus [11]
  inhibition in vivo at 11 mg/kg/day: 28%
Rattus norvegicus [12]
  inhibition: inactive

## COc1ccc2c(C(=O)N(C)CC(N)=O)c(F)ccc2c1C(F)(F)F
Rattus norvegicus [1]
  Inhibition: 80%
Rattus norvegicus [2]
  Inhibition: 17%
Rattus norvegicus [13]
  IC50: 12 µM
Rattus norvegicus [14]
  IC50: > 10 µM
Rattus norvegicus [15]
  inhibition in vivo at 5 mg/kg/day: 32%
Rattus norvegicus [16]
  IC50: 3.1 µM
Rattus norvegicus [17]
  inhibition in vivo at 5 mg/kg/day: 39%
Rattus norvegicus [18]
  ED50: 8.5 mg/kg
Rattus norvegicus [19]
  ED50: < 3 mg/kg
Rattus norvegicus [20]
  inhibition in vivo at 10 mg/kg/day: 59%
Rattus norvegicus [21]
  inhibition in vivo at 10 mg/kg/day: 41%
[22]
  inhibition: inactive
Rattus norvegicus [23]
  ED50: 5.5 mg/kg

## COc1ccc2c(C(=O)N(C)CC(=O)O)cccc2c1C(F)(F)F
Rattus norvegicus [1]
  Inhibition: 74%
Rattus norvegicus [2]
  Inhibition: 27%
Rattus norvegicus [24]
  inhibition: inactive
Rattus norvegicus [25]
  inhibition in vivo at 75 mg/kg/day: 56%
Rattus norvegicus [26]
  inhibition in vivo at 25 mg/kg/day: 33%
Rattus norvegicus [27]
  inhibition in vivo at 75 mg/kg/day: 27%
Rattus norvegicus [28]
  inhibition in vivo at 53 mg/kg/day: 93%
Rattus norvegicus [29]
  inhibition in vivo at 53 mg/kg/day: 94%

## COc1ccc2c(C(=O)N(C)CC(=O)O)cc(-c3ccccc3)cc2c1Br
Rattus norvegicus [1]
  Inhibition: 71%
Rattus norvegicus [30]
  inhibition in vivo at 132 mg/kg/day: 33%
Rattus norvegicus [2]
  Inhibition: 28%
Rattus norvegicus [31]
  inhibition in vivo at 132 mg/kg/day: 24%
[5]
  inhibition: 83%

## COc1ccc2c(C(=O)N(C)CC(=O)O)c(Cl)ccc2c1C(F)(F)F
Rattus norvegicus [1]
  Inhibition: 67%
Rattus norvegicus [32]
  inhibition in vivo at 49 mg/kg: 80%
Rattus norvegicus [2]
  Inhibition: 39%
Rattus norvegicus [33]
  inhibition in vivo at 26 mg/kg/day: 43%
Rattus norvegicus [34]
  inhibition in vivo at 49 mg/kg/day: 83%
[5]
  inhibition: 63%

## CCN(CC)C(=O)COC(=O)CN(C(=O)OC)C(=O)c1c(F)ccc2c(C(F)(F)F)c(OC)ccc12
[9]
  inhibition: inactive
Rattus norvegicus [35]
  inhibition in vivo at 32 mg/kg/day: 75%
Rattus norvegicus [36]
  inhibition in vivo at 32 mg/kg/day: 75%
Rattus norvegicus [11]
  inhibition in vivo at 11 mg/kg/day: 36%
Rattus norvegicus [37]
  inhibition in vivo at 11 mg/kg/day: 39%

## COC(=O)N(CC(=O)O)C(=O)c1c(Br)ccc2c(C(F)(F)F)c(OC)ccc12
Rattus norvegicus [1]
  Inhibition: 68%
Rattus norvegicus [2]
  Inhibition: 29%
Rattus norvegicus [38]
  inhibition in vivo at 51 mg/kg/day: 69%
Rattus norvegicus [39]
  inhibition in vivo at 51 mg/kg/day: 62%
[5]
  inhibition: 77%

## COc1ccc2c(C(=S)N(C)CC(=O)O)cc(C)cc2c1Br
Rattus norvegicus [1]
  Inhibition: 86%
Rattus norvegicus [40]
  inhibition in vivo at 123 mg/kg/day: 91%
Rattus norvegicus [2]
  Inhibition: 43%
Rattus norvegicus [11]
  inhibition in vivo at 11 mg/kg/day: 48%
Rattus norvegicus [41]
  inhibition in vivo at 123 mg/kg/day: 86%
Rattus norvegicus [12]
  inhibition: inactive
[5]
  inhibition: 85%

## COc1ccc2c(C(=O)N(C)CC(=O)O)ccc(Cc3ccccc3)c2c1Br
Rattus norvegicus [42]
  inhibition in vivo at 52 mg/kg/day: 34%
Rattus norvegicus [43]
  inhibition: inactive
[5]
  inhibition: 80%
